Data on two substances can be found in patent US20080120039A1, “HORMONE AND DRUG CONCENTRATIONS IN THE PORTAL VEIN AND HEPATIC SINUSOIDS” (Entelos, Inc., priority 2005, published 2008).

Read-outs that look alike come from different tables or passages of the source.

For series [1] the following is noted: dogs; cited from earlier work.
The conditions of series [2]: cited from earlier work.
Series [3] is described as follows: Glucagon infusions with somatostatin; metabolic clearance of glucagon. The series is classed as in vivo, human. From the text:
FIGS. 3A and 3B provide graphs of plasma glucagon concentrations during different glucagon infusion rates in human subjects. FIG. 3A illustrates data from studies that report lower glucagon concentrations during glucagon infusions (Chhibber, et al. Metabolism 49(1):39-46 (2000) and Matsuda, et al. Metabolism 51(9):1111-1119 (2002)) and FIG. 3B illustrates data from studies that report higher glucagon concentrations during glucagon infusions (Nielsen, et al., Diabetes 46(12):2007-2016 (1997) and Andrews, et al., J. Clin. Endocrinol. Metab. 88(1):285-291 (2003)). The equation for the regression line in FIG. 3A is y=0.41x+60.15 with r^2=0.96 and the regression line in FIG. 3B is y=x+69.5 with r=0.97.
Different research groups report considerably different glucagon concentrations in response to plasma glucagon infusions. In FIG. 3A, the regression line yields m=0.00041 min/ml, whereas for the regression line for 3B yields m=0.001 min/ml. These differences lead to considerable differences in predicted portal glucagon concentrations in both fasted and fed conditions, as described below. The MCR for glucagon has been reported to be between 7-14 ml/kg/min; taking the reciprocal of the MCR for a 70 kg individual gives m=0.001-0.002 min/ml. As a result of the variability in the reported measurements for this parameter, two different possibilities are considered in the analyses: one where m=0.00041 and another where m=0.001 min/ml.

The conditions of series [4]: sheep; cited from earlier work.
For series [5] the following is noted: rats; cited from earlier work.
The conditions of series [6]: pigs; cited from earlier work.
The conditions of series [7]: reported; cited from earlier work.
The conditions of series [8]: cited from earlier work. The source holds these as a separate data set.
The conditions of series [9]: healthy patients; cited from earlier work.

glucagon: the “hepatic glucagon extraction, f” value in [1] is “≈ 0.2”; in series [4], “≈ 0.07”; in series [5], “≈ 0.5”; in [6], “≈ 0.1”. The “hepatic glucagon extraction in humans” value in [2] (Felig et al.) is recorded as “little or no hepatic glucagon extraction”. Moreover, the “portal glucagon concentration relative to systemic plasma” value in series [2] (reported in the literature) is on record as 1.3-3.0 times higher. In series [3] (for a 70 kg individual), the “m as reciprocal of reported MCR” value lay in the range of 0.001 to 0.002 min/mL. Also, the “m (slope of plasma glucagon concentration versus infusion rate)” value was 0.001 min/ml and ≈ 0.001 min/ml in series [3] (studies with higher glucagon concentrations (FIG. 3B)); 0.00041 min/ml and ≈ 0.0004 min/ml in [3] (studies with lower glucagon concentrations (FIG. 3A), about twice the somatostatin rate). Moreover, the MCR for glucagon in series [7] is 7 to 14 mL/min/kg.
Turning to insulin, the “fractional extraction of insulin by the liver, f” value in [8] (most estimates) was 0.5-0.7; in [8] (portal catheterization study and mathematical models based on insulin and c-peptide concentrations), “≈ 0.5”; in [8] (splanchnic balance studies), 0.7. For the same substance, the “metabolic clearance rate (MCR) of insulin” value in series [9] was 13 to 27 mL/min/kg. For the same substance, the “m as reciprocal of reported MCR” value (for a 70 kg patient) is 0.0005 to 0.001 min/mL. Under “insulin infusions with somatostatin, healthy individuals, studies of FIG. 2, 70 kg individual”, the “m (slope of steady-state systemic plasma concentration versus exogenous infusion rate; reciprocal of MCR)” value was 0.0007 min/ml and approximately 0.0007 min/ml.
